Experiments:
Type in all cases: cell-based
[1] = HCV Replicon 1B CC50, calcein AM (Example Q); settings: calcein AM fluorescence, read-out: HCV Replicon 1B CC50 (nM) (per Ex. Q)
Protocol: (§1) Compounds were serially diluted in ten steps of 1:3 dilutions in 384-well plates. All serial dilutions were performed in four replicates per compound within the same 384-well plate. An HCV protease inhibitor ITMN-191 at […] was added as a control of 100% inhibition of HCV replication while puromycin at 10 mM was included as a control of 100% cytotoxicity. To each well of a black polystyrene 384-well plate (Greiner Bio-one, Monroe, NC), 90 μL of cell culture medium (without Geneticin) containing 2000 suspended HCV replicon cells was added with a Biotek μFlow workstation. For compound transfer into cell culture plates, 0.4 μL of compound solution from the compound serial dilution plate was transferred to the cell culture plate on a Biomek FX workstation. The DMSO concentration in the final assay wells was 0.44%. The plates were incubated for 3 days at 37° C. with 5% CO2 and 85% humidity. The HCV replicon assay was a multiplex assay, able to assess both cytotoxicity and antireplicon activity from the same well. The CC50 assay was performed first. The media in the 384-well cell culture plate was aspirated, and the wells were washed four times with 100 μL of PBS each, using a Biotek ELX405 plate washer. A volume of 50 μL of a solution containing 400 nM calcein AM (Anaspec, Fremont, CA) in 1×PBS was added to each well of the plate with a Biotek μFlow workstation. The plate was incubated for 30 min at room temperature before the fluorescence signal (excitation 490 nm, emission 520 nm) was measured with a Perkin-Elmer Envision plate reader. The EC50 assay was performed in the same wells as the CC50 assay. The calcein-PBS solution in the 384-well cell culture plate was aspirated with a Biotek ELX405 plate washer. A volume of 20 μL of Dual-Glo luciferase buffer (Promega, Madison, WI) was added to each well of the plate with a Biotek μFlow Workstation. The plate was incubated for 10 min at room temperature. A volume of 20 μL of a solution containing a 1:100 mixture of Dual-Glo Stop & Glo substrate (Promega, Madison, WI) and Dual-Glo Stop & Glo buffer (Promega, Madison, WI) was added to each well of the plate with a Biotek μFlow Workstation. The plate was then incubated at room temperature for 10 min before the luminescence signal was measured with a Perkin-Elmer Envision Plate Reader.

[2] = test system: CAN97-83-GFP1 (A2a) hMPV in H1-HeLa cells; experiment: hMPV H1-Hela EC50, anti-nucleoprotein ELISA (Example X); settings: human metapneumovirus, 96 h, read-out: hMPV H1-Hela EC50 (nM) (per Ex. X)
Protocol: The human metapneumoavirus (hMPV) anti-viral assay is an anti-nucleoprotein ELISA performed in infected H1-HeLa cells. H1-HeLa cells were maintained in Dulbecco's Modified Eagle's Medium with high glucose (Gibco, Cat #: 11995073) supplemented with 10% FBS (HyClone, Cat #: SH303396.03), 100 units/mL penicillin and 100 μg/mL streptomycin (Gibco, Cat #: 15140122). One day before infection, H1-HeLa cells were seeded into 96-well plates (Corning, Cat. #: 3903) at 0.1 mL/well at 1.5×10^5 cells/mL in Opti-MEM (Gibco, Cat #: 31985070) supplemented with 2% FBS, and were incubated at 37° C. in a 100% humid atmosphere containing 5% (v/v) CO2 overnight. On the next day, CAN97-83-GFP1 (A2a) hMPV was diluted in Opti-MEM medium containing 200 μg/mL CaCl2) and 2 μg/mL TPCK treated trypsin and distributed to the 96-well plates at 0.1 mL/well for an MOI=0.1. Test compounds were distributed to each well using a HP D300e digital dispenser with a final volume of 200 µL/well. After the plates were centrifuged at 700 g for one hour at room temperature, they were maintained in a humidified chamber at 37-C with 5% (v/v) CO2 for 96 hours. After the incubation, the medium was removed, and the plates were fixed with 0.1 mL/well 1% formaldehyde for 15 min at room temperature. The fixative was removed, the plates were air dried for 30-60 minutes, and then permeabilized with 0.1 mL/well 0.5% Triton X-100 in PBS for five minutes at room temperature. Following permeabilization, the plates were washed once with 0.1 mL/well blocking buffer consisting of 10% FBS (HyClone, Cat #: SH303396.03), 5% dry milk (AmericanBio, Cat #: AB10109-01000), and 0.1% Tween 20 (EMD Millipore, Cat #655204) in PBS. The plates were blocked with 0.1 mL/well blocking buffer for 60 minutes at 37° C. afterward. The blocking buffer was removed and 0.05 mL/well human metapneumovirus nucleocapsid antibody (Sigma, Cat #MAB80121) diluted 1:500 in Blocking buffer was added and incubated for two hours at 37-C. The plates were then washed with 0.2 mL/well 0.1% Tween 20/PBS five times, followed by addition of 0.05 mL/well of horseradish peroxidase (HRP) conjugated goat anti-mouse IgG antibody (Fisher Scientific, Cat #501077607) at 1:2000 dilution in the blocking buffer. After one-hour incubation at 37-C, plates were washed five times with 0.2 mL/well 0.1% tween 20 in PBS. The HRP signals were developed by adding 0.1 mL/well of TMB reagent (Thermo Scientific, Cat #: ENN301) and incubating at room until the positive control was apparent. At that point, the reaction was stopped by adding 0.1 mL/well TMB stop solution (SeraCare, Cat #: 5150-0021). The absorbance was measured at 450 nm with an EnVision plate reader. The relative absorbance was calculated by normalizing the absorbance of the compound-treated groups to that of the DMSO-treated groups (set as 100%). EC50 values were calculated using a nonlinear four parameter variable slope regression model.

[3] = HCV Replicon 2A CC50, calcein AM (Example Q); settings: calcein AM fluorescence, read-out: HCV Replicon 2A CC50 (nM) (per Ex. Q)
Protocol: as §1

Row | Structure (SMILES) | CC50 at 3 days ([1]; HCV replicon cells (1B)) [nM] | EC50 [2] [nM] | CC50 at 3 days ([3]; HCV replicon cells (2A)) [nM] | CC50 at 3 days ([1]; HCV replicon cells) [nM] | CC50 at 3 days ([3]; HCV replicon cells) [nM]
1 | CCCCCCCCCCCCCCCC[C@@H](COP(=O)(O)OC[C@@]1(C#N)O[C@@H](c2ccc3c(N)ncnn23)[C@H](O)[C@@H]1O)OCc1cc(F)cc(C#N)c1 [Compound 79, ((2R,3S,4R,5S)-5-(4-aminopyrrolo[2,1-f][1,2,4]triazin-7-yl)-2-cyano-3,4-dihydroxytetrahydrofuran-2-yl)methyl ((S)-2-((3-cyano-5-fluorobenzyl)oxy)octadecyl) hydrogen phosphate] | > 44400 | 1610 | 30200 | – | –
2 | CCCCCCCCCCCCCCCCCCC[C@H](COP(=O)(O)OC[C@@]1(C#N)O[C@@H](c2ccc3c(N)ncnn23)[C@H](O)[C@@H]1O)OCc1cc(Cl)cc(C#N)c1 [Compound 82, ((2R,3S,4R,5S)-5-(4-aminopyrrolo[2,1-f][1,2,4]triazin-7-yl)-2-cyano-3,4-dihydroxytetrahydrofuran-2-yl)methyl ((R)-2-((3-chloro-5-cyanobenzyl)oxy)henicosyl) hydrogen phosphate] | > 44400 | 1120 | 37600 | – | –
3 | CCCCCCCCCCCCCCCCCCOC[C@H](COP(=O)(O)OC[C@@]1(C#N)O[C@@H](c2ccc3c(N)ncnn23)[C@H](O)[C@@H]1O)OCc1cccc(C#N)n1 [Compound 68, ((2R,3S,4R)-5-(4-aminopyrrolo[2,1-f][1,2,4]triazin-7-yl)-2-cyano-3,4-dihydroxytetrahydrofuran-2-yl)methyl ((R)-2-((6-cyanopyridin-2-yl)methoxy)-3-(octadecyloxy)propyl) hydrogen phosphate] | – | 214 | – | > 44400 | > 44400
4 | CCCCCCCCCCCCCCCCCCOC[C@@H](COP(=O)(O)OC[C@@]1(C#N)O[C@@H](c2ccc3c(N)ncnn23)[C@H](O)[C@@H]1O)Oc1ccc(C#N)nc1 [Compound 72, ((2R,3S,4R,5S)-5-(4-aminopyrrolo[2,1-f][1,2,4]triazin-7-yl)-2-cyano-3,4-dihydroxytetrahydrofuran-2-yl)methyl ((S)-2-((6-cyanopyridin-3-yl)oxy)-3-(octadecyloxy)propyl) hydrogen phosphate] | – | 70 | – | > 44400 | > 44400
